Test results reported in ChEMBL document CHEMBL5042487, “Design, synthesis, and biological activity evaluation of 2-(benzo[b]thiophen-2-yl)-4-phenyl-4,5-dihydrooxazole derivatives as broad-spectrum antifungal agents” (Eur J Med Chem, 2022).
≈ marks a conversion by molar mass, not a printed value.

How the values were obtained:
Candida albicans [1] = experiment: Antifungal activity against Candida albicans SC5314 assessed as inhibition of fungal growth by NCCLS protocol based method; assay type: functional
Candida albicans [2] = experiment: Antifungal activity against Candida albicans GIM 2.194 assessed as inhibition of fungal growth by NCCLS protocol based method; assay type: functional
Candida tropicalis = experiment: Antifungal activity against Candida tropicalis GIM 2.183 assessed as inhibition of fungal growth by NCCLS protocol based method; assay type: functional
Cryptococcus neoformans = experiment: Antifungal activity against Cryptococcus neoformans GIM 2.209 assessed as inhibition of fungal growth by NCCLS protocol based method; assay type: functional
Aspergillus fumigatus = experiment: Antifungal activity against Aspergillus fumigatus CGMCC 3.7795 assessed as inhibition of fungal growth by NCCLS protocol based method; assay type: functional
[3] = Metabolic stability in human liver microsomes assessed as half life at 100 uM pre-incubated for 10 mins followed by NADPH-regenerating system and measured upto 60 mins by LC-MS/MS analysis; assay type: ADME, Microsome; details: time <=70 min
Candida albicans [4] = experiment: Antifungal activity against fluconazole resistant Candida albicans CaR assessed as inhibition of fungal growth by NCCLS protocol based method; assay type: functional
Candida albicans [5] = experiment: Antifungal activity against fluconazole and itraconazole resistant Candida albicans 17# assessed as inhibition of fungal growth by NCCLS protocol based method; assay type: functional
[6] = Stability in human plasma assessed as compound remaining incubated for 60 mins by LC-MS/MS analysis; assay type: ADME, cell-free; details: read-out: Stability
[7] = Stability in human plasma assessed as compound remaining incubated for 120 mins by LC-MS/MS analysis; assay type: ADME, cell-free; details: 2 h
[8] = Stability in human plasma assessed as half life incubated for 60 mins by LC-MS/MS analysis; assay type: ADME, cell-free
[9] = Metabolic stability in human liver microsomes assessed as microsomal intrinsic clearance at 100 uM pre-incubated for 10 mins followed by NADPH-regenerating system and measured upto 60 mins by LC-MS/MS analysis; assay type: ADME, Microsome; details: time <=70 min, read-out: CLH
[10] = Metabolic stability in human liver microsomes assessed as liver intrinsic clearance at 100 uM pre-incubated for 10 mins followed by NADPH-regenerating system and measured upto 60 mins by LC-MS/MS analysis; assay type: ADME, Microsome; details: time <=70 min, read-out: CLH
[11] = Metabolic stability in human liver microsomes assessed as parent compound remaining at 100 uM pre-incubated for 10 mins followed by NADPH-regenerating system and measured upto 60 mins by LC-MS/MS analysis; assay type: ADME, Microsome; details: time <=70 min, read-out: Stability
[12] = Metabolic stability in human liver microsomes assessed as parent compound remaining incubated upto 60 mins by LC-MS/MS analysis; assay type: ADME, Microsome; details: read-out: Stability
Cytochrome P450 1A2 = target: T1, Cytochrome P450 1A2 (Homo sapiens, UniProt P05177); experiment: Inhibition of CYP1A2 in human liver microsomes incubated for 10 mins in presence of NADPH by LC/MS/MS analysis; assay type: ADME
T1 sequence (P05177 whole entry): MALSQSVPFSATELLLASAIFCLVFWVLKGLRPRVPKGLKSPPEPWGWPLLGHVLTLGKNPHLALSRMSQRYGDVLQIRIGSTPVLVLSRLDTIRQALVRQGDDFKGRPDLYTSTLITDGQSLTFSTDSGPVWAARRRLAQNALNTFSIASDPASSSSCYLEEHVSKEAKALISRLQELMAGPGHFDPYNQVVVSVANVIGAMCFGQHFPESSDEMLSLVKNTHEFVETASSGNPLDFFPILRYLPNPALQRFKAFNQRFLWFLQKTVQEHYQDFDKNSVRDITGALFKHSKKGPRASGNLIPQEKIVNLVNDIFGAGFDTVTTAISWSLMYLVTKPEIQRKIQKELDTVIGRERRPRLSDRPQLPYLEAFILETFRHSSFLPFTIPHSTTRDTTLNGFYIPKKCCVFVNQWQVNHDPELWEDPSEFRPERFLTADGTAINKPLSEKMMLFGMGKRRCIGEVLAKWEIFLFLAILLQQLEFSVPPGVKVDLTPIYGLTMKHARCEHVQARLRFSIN

Cytochrome P450 2C9 = Cytochrome P450 2C9 (Homo sapiens, UniProt P11712); experiment: Inhibition of CYP2C9 in human liver microsomes incubated for 10 mins in presence of NADPH by LC/MS/MS analysis; assay type: ADME
Cytochrome P450 2C19 = Cytochrome P450 2C19 (Homo sapiens, UniProt P33261); experiment: Inhibition of CYP2C19 in human liver microsomes incubated for 10 mins in presence of NADPH by LC/MS/MS analysis; assay type: ADME
Cytochrome P450 2D6 = Cytochrome P450 2D6 (Homo sapiens, UniProt P10635); experiment: Inhibition of CYP2D6 in human liver microsomes incubated for 10 mins in presence of NADPH by LC/MS/MS analysis; assay type: ADME
Cytochrome P450 3A4 = Cytochrome P450 3A4 (Homo sapiens, UniProt P08684); experiment: Inhibition of CYP3A4 in human liver microsomes incubated for 10 mins in presence of NADPH by LC/MS/MS analysis; assay type: ADME
[13] = Initial plasma concentration in Sprague-Dawley rat at 2 mg/kg, iv measured upto 24 hrs by LC/MS/MS analysis; assay type: ADME, organism-based
[14] = Half life in Sprague-Dawley rat at 2 mg/kg, iv measured upto 24 hrs by LC/MS/MS analysis; assay type: ADME, organism-based; details: in vivo
[15] = Volume of distribution at steady state in Sprague-Dawley rat at 2 mg/kg, iv measured upto 24 hrs by LC/MS/MS analysis; assay type: ADME, organism-based; details: in vivo, read-out: Vdss
[16] = Clearance in Sprague-Dawley rat at 2 mg/kg, iv measured upto 24 hrs by LC/MS/MS analysis; assay type: ADME, organism-based; details: in vivo
[17] = AUC(0 to last) in Sprague-Dawley rat at 2 mg/kg, iv measured upto 24 hrs by LC/MS/MS analysis; assay type: ADME, organism-based; set-up: route intravenous, dose 2 mg/kg, time <=24; details: in vivo
[18] = AUC (0 to infinity) in Sprague-Dawley rat at 2 mg/kg, iv measured upto 24 hrs by LC/MS/MS analysis; assay type: ADME, organism-based; set-up: route intravenous, dose 2 mg/kg, time <=24; details: in vivo

Cytochrome P450 2C9, sequence (P11712 whole entry): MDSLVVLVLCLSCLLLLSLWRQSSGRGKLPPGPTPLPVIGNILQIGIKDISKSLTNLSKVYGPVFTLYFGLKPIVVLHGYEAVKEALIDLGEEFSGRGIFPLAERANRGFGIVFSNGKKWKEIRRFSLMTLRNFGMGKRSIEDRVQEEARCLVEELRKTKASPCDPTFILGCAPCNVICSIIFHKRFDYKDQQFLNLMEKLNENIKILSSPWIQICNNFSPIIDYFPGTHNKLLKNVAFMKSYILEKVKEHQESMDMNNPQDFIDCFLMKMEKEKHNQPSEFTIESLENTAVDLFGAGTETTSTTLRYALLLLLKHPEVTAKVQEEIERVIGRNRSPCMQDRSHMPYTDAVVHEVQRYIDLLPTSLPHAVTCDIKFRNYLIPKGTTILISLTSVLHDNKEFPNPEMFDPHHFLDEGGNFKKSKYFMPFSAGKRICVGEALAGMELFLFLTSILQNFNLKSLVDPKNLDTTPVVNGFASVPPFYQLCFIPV
Cytochrome P450 3A4, sequence (P08684 whole entry): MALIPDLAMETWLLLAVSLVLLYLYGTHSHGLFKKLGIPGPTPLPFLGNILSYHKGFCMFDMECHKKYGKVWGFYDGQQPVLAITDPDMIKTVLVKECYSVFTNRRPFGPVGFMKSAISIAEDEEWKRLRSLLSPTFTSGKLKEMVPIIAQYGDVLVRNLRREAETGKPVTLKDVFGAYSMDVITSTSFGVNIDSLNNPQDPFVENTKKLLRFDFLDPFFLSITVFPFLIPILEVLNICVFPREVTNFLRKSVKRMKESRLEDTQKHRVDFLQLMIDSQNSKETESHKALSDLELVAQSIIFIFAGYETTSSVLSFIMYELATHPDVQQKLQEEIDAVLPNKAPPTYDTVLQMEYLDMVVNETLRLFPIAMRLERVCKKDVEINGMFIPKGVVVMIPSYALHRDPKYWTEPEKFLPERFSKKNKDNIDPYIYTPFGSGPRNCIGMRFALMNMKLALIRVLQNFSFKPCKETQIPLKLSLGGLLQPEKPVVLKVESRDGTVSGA
Cytochrome P450 2D6, sequence (P10635 whole entry): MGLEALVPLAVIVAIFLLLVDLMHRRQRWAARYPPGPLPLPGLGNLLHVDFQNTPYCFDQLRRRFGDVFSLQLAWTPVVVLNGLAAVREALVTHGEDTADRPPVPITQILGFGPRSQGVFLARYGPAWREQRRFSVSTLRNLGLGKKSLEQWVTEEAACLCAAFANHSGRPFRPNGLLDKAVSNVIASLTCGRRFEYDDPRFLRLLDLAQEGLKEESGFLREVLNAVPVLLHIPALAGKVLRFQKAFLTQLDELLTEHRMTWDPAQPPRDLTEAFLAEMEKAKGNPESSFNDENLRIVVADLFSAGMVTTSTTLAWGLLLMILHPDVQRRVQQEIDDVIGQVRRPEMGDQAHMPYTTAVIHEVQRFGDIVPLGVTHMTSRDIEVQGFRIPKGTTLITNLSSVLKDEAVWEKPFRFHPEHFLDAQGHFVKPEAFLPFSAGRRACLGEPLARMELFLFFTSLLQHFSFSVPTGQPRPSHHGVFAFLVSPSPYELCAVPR
Cytochrome P450 2C19, sequence (P33261 whole entry): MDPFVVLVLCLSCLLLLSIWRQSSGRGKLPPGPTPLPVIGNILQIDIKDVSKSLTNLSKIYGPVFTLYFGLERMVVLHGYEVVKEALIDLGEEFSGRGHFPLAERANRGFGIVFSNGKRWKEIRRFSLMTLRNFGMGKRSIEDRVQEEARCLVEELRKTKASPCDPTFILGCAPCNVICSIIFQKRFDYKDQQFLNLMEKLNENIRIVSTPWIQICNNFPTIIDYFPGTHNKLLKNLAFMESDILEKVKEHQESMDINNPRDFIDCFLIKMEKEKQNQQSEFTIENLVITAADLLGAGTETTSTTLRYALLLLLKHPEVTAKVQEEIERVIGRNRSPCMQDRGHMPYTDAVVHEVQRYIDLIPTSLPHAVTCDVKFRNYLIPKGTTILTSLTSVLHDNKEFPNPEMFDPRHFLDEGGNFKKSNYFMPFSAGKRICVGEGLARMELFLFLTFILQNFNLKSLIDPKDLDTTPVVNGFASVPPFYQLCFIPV

Row | Structure (SMILES) | MIC (Candida albicans [1]) | MIC (Candida albicans [2]) | MIC (Candida tropicalis) | MIC (Cryptococcus neoformans) | MIC (Aspergillus fumigatus) | MIC (Candida albicans [4]) | MIC (Candida albicans [5]) | further results
1 | Fc1ccc(C2(Cn3cncn3)COC(c3ccc(-c4ccoc4)cc3)=N2)cc1 (configuration not stated) | < 0.03 µg/mL | < 0.03 µg/mL | 0.125 µg/mL (≈ 0.322 µM) | 0.25 µg/mL (≈ 0.644 µM) | 0.25 µg/mL (≈ 0.644 µM) |  |  | half-life at 100 µM [3]: 0.31 h
2 | OC(Cn1cncn1)(Cn1cncn1)c1ccc(F)cc1F [FLUCONAZOLE] | 0.5 µg/mL (≈ 1.63 µM) | 1 µg/mL (≈ 3.27 µM) | 1 µg/mL (≈ 3.27 µM) | 4 µg/mL (≈ 13.1 µM) | > 64 µg/mL | > 64 µg/mL | > 64 µg/mL | remaining at 1 h [6]: 86.7%; Stability [7]: 88.2%; half-life [8]: > 4.82 h
3 | Clc1ccc(C2(Cn3cncn3)COC(c3cc4ccc(Cl)cc4s3)=N2)cc1 (configuration not stated) | < 0.03 µg/mL | < 0.03 µg/mL | 0.06 µg/mL (≈ 0.14 µM) | 0.5 µg/mL (≈ 1.16 µM) | 2 µg/mL (≈ 4.66 µM) | 0.5 µg/mL (≈ 1.16 µM) | > 64 µg/mL | half-life at 100 µM [3]: 1.16 h; microsomal CLint at 100 µM [9]: 20 µL/min/mg; CLint scaled at 100 µM [10]: 18 mL/min/kg; remaining at 1 h, 100 µM [11]: 49.9%; remaining at 1 h [12]: 77.3%; remaining at 1 h [6]: 92.7%; Stability [7]: 116.1%; half-life [8]: > 4.82 h; IC50 (Cytochrome P450 1A2): 5.67 µM; IC50 (Cytochrome P450 2C9): 1.5 µM; IC50 (Cytochrome P450 2C19): 0.168 µM; IC50 (Cytochrome P450 2D6): 47.6 µM; IC50 (Cytochrome P450 3A4): 29.1 µM
4 | Fc1cccc(C2(Cn3cncn3)COC(c3cc4ccc(Br)cc4s3)=N2)c1 (configuration not stated) | < 0.03 µg/mL | < 0.03 µg/mL | < 0.03 µg/mL | 0.25 µg/mL (≈ 0.547 µM) | 2 µg/mL (≈ 4.37 µM) | > 64 µg/mL | > 64 µg/mL | 
5 | Fc1ccc(C2(Cn3cncn3)COC(c3cc4ccc(Br)cc4s3)=N2)cc1 (configuration not stated) | < 0.03 µg/mL | 0.06 µg/mL (≈ 0.131 µM) | 0.13 µg/mL (≈ 0.284 µM) | 1 µg/mL (≈ 2.19 µM) | 2 µg/mL (≈ 4.37 µM) | 0.5 µg/mL (≈ 1.09 µM) | > 64 µg/mL | 
6 | Clc1ccc(C2(Cn3cncn3)COC(c3cc4ccc(Br)cc4s3)=N2)cc1 (configuration not stated) | < 0.03 µg/mL | < 0.03 µg/mL | 0.06 µg/mL (≈ 0.127 µM) | 0.25 µg/mL (≈ 0.528 µM) | 1 µg/mL (≈ 2.11 µM) | 0.5 µg/mL (≈ 1.06 µM) | > 64 µg/mL | 
7 | Fc1ccc(C2(Cn3cncn3)COC(c3cc4ccc(Cl)cc4s3)=N2)cc1 (configuration not stated) | < 0.03 µg/mL | < 0.03 µg/mL | < 0.03 µg/mL | 0.25 µg/mL (≈ 0.606 µM) | 0.5 µg/mL (≈ 1.21 µM) | 0.5 µg/mL (≈ 1.21 µM) | > 64 µg/mL | half-life at 100 µM [3]: 1.34 h; microsomal CLint at 100 µM [9]: 17.2 µL/min/mg; CLint scaled at 100 µM [10]: 15.5 mL/min/kg; remaining at 1 h, 100 µM [11]: 54.6%; remaining at 1 h [12]: 82.6%; remaining at 1 h [6]: 92.6%; Stability [7]: 108.2%; half-life [8]: > 4.82 h; IC50 (Cytochrome P450 1A2): 4.47 µM; IC50 (Cytochrome P450 2C9): 2.87 µM; IC50 (Cytochrome P450 2C19): 1.04 µM; IC50 (Cytochrome P450 2D6): 31.3 µM; IC50 (Cytochrome P450 3A4): 10.1 µM; C0 at 24 h [13]: 482 ng/mL; half-life [14]: 3.34 h; Vd [15]: 10.3 L/kg; clearance [16]: 69.4 mL/min/kg; AUC(0-t) at 24 h [17]: 483 ng·h/mL; AUC(0-inf) [18]: 505 ng·h/mL
8 | Fc1ccc(C2(Cn3cncn3)COC(c3cc4ccc(F)cc4s3)=N2)cc1 (configuration not stated) | 0.125 µg/mL (≈ 0.315 µM) | 0.5 µg/mL (≈ 1.26 µM) | 0.25 µg/mL (≈ 0.631 µM) | 2 µg/mL (≈ 5.05 µM) | 1 µg/mL (≈ 2.52 µM) | > 64 µg/mL | > 64 µg/mL | 
9 | FC(F)(F)c1ccc2cc(C3=NC(Cn4cncn4)(c4ccccc4)CO3)sc2c1 (configuration not stated) | 0.25 µg/mL (≈ 0.584 µM) | > 16 µg/mL | 8 µg/mL (≈ 18.7 µM) | 16 µg/mL (≈ 37.3 µM) | > 64 µg/mL |  |  | 
10 | O=C(Nc1ccc(C2=NC(Cn3cncn3)(c3ccccc3)CO2)cc1)c1ccccc1 (configuration not stated) | > 16 µg/mL | 8 µg/mL (≈ 18.9 µM) | > 64 µg/mL | > 64 µg/mL | > 64 µg/mL |  |  | 
11 | FC(F)(F)Oc1ccc2cc(C3=NC(Cn4cncn4)(c4ccccc4)CO3)sc2c1 (configuration not stated) | 0.06 µg/mL (≈ 0.135 µM) | > 16 µg/mL | > 16 µg/mL | > 64 µg/mL | > 64 µg/mL |  |  | 
12 | FC(F)(F)Oc1ccc2sc(C3=NC(Cn4cncn4)(c4ccccc4)CO3)cc2c1 (configuration not stated) | < 0.03 µg/mL | 0.06 µg/mL (≈ 0.135 µM) | 0.25 µg/mL (≈ 0.563 µM) | > 64 µg/mL | > 64 µg/mL |  |  | 
13 | Fc1cccc(C2(Cn3cncn3)COC(c3cc4ccc(Cl)cc4s3)=N2)c1 (configuration not stated) | < 0.03 µg/mL | < 0.03 µg/mL | 4 µg/mL (≈ 9.69 µM) | 0.25 µg/mL (≈ 0.606 µM) | 1 µg/mL (≈ 2.42 µM) | > 64 µg/mL | > 64 µg/mL | 
